Assay results reported in BigSolDB 2.1.

O=c1cc(CBr)c2ccccc2[nH]1
solubility (mole fraction)
Conditions	273.15 K	278.15 K	283.15 K	288.15 K	293.15 K	298.15 K	303.15 K	308.15 K	313.15 K
in 1,4-dioxane	–	–	–	0.000504	0.000625	0.000767	0.00092	0.00111	0.00137
in 2-butanone	0.000321	0.000365	0.000408	0.000455	0.000511	0.00057	0.000634	0.00071	0.000792
in DMF	0.00214	0.00272	0.00329	0.00399	0.00464	0.00542	0.00634	0.00729	0.00828
in DMSO	–	–	–	–	0.0141	0.0185	0.0232	0.0284	0.0338
in NMP	0.0044	0.00524	0.0062	0.00719	0.00827	0.00939	0.0108	0.0125	0.0143
in acetonitrile	8e-05	9e-05	0.000104	0.000118	0.000134	0.00015	0.000171	0.000196	0.000223
in ethanol	0.000173	0.000188	0.000206	0.000227	0.000247	0.000271	0.000301	0.000338	0.000385
in isopropanol	0.000136	0.000154	0.000177	0.0002	0.000224	0.000248	0.000279	0.000316	0.00036
in methanol	0.000113	0.000129	0.000146	0.000165	0.000186	0.000207	0.000234	0.000265	0.000303
in n-butanol	0.00029	0.000311	0.000333	0.000361	0.000391	0.000425	0.000461	0.000508	0.000558
in n-propanol	0.000224	0.00024	0.000262	0.000283	0.000309	0.000341	0.000379	0.000425	0.000476
in toluene	1.5e-05	1.9e-05	2.3e-05	2.8e-05	3.2e-05	3.8e-05	4.3e-05	4.9e-05	5.6e-05
